This is an account of results in patent US6955873B1, “Diagnosis and treatment system for reward deficiency syndrome (RDS) and related behaviors” (priority 1999, dated 2005).

“Also recorded” adds a separate entry of the source. Where two headings read alike, the source gives them in different places.

Data set [1] concerns mice. To be noted: cited from earlier work.
Data set [2] concerns animals and man. To be noted: cited from earlier work; for analgesia: used separately.
Data set [3] deals with animals and humans. To be noted: cited from earlier work.
The subject of data set [4] is pain patients. The note with it: cited from earlier work.
Data set [5] has as its system mice. The note with it: animal tests; cited from earlier work.
Data set [6] concerns humans. The data set can be described thus: Blood pressure in humans. The class given is in vivo, human. The note with it: single dose.
The test system of data set [7] is spontaneously hypertensive rats (SHR). The data set can be described thus: Blood pressure in spontaneously hypertensive rats (SHR). The note with it: rat, in vivo. The source says:
D-Phenylalanine was able to lower systolic blood pressure of these rats close to normal (average drop of 36.7 mm Hg). It is noteworthy that this effect is blocked by the narcotic antagonist and the effect on blood pressure is synergistic with the beta-blocker popranolol. Even more important is that the lowering of blood pressure by d-phenylalanine lasted several days.

Data set [8] has as its target mu-opioid receptor (Mus musculus, UniProt P42866). To be noted: spinal cord, wild-type mice; cited from earlier work.
In data set [9] the test system is brain of mice. The note with it: cited from earlier work.
The target in data set [10] is 5-HTP decarboxylase (Homo sapiens, UniProt P20711). The note with it: cited from earlier work.
5-HTP decarboxylase, sequence (P20711 whole entry): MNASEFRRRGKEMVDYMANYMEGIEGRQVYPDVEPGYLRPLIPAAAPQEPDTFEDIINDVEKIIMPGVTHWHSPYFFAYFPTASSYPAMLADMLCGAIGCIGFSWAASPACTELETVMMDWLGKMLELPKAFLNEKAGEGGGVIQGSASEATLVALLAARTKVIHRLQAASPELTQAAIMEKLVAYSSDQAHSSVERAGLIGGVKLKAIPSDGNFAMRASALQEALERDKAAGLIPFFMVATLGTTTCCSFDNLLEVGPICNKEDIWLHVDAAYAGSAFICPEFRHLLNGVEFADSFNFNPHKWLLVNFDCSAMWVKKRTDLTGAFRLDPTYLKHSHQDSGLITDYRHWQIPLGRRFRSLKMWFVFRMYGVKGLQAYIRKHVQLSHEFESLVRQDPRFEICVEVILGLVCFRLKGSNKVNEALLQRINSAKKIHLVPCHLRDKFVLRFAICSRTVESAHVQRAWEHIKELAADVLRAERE
Data set [11] relates to Blood Brain Barrier (BBB). To be noted: mice, vs saline controls, cited from earlier work.
Data set [12] has as its target COMT (Homo sapiens, UniProt P21964). To be noted: cited from earlier work.
Data set [13] relates to MAO. To be noted: cited from earlier work.
The subject of data set [14] is subjects diagnosed with ADHD. To be noted: study in the early 70's; cited from earlier work.
For data set [15] the following is noted: cited from earlier work; for duration of action: in vivo.
The conditions of data set [16]: in vivo; cited from earlier work.
In data set [17] the test system is synaptosomes in rat brain slices. To be noted: cited from earlier work.
Data set [18] concerns common cold. The note with it: high dose supplementation; cited from earlier work.
Data set [19] deals with adult albino rats. The note with it: 10 day administration, 500 ng/kg per day with the drinking water; cited from earlier work.
The test system of data set [20] is patients with age-related memory disorders. The note with it: certain patients; not substantiated by clinical trials; cited from earlier work.
In data set [21] the test system is mice. To be noted: cited from earlier work. The source holds these as a separate data set.
Data set [22] has as its system cell culture. The note with it: concentrations thousands of times higher than physiological levels; cited from earlier work.
For data set [23], the system named is humans. To be noted: in vivo; cited from earlier work.
In data set [24] the test system is animals. To be noted: cited from earlier work; for rewarding actions: dopamine receptor agonists.
The test system of data set [25] is alcoholics. To be noted: in vivo; cited from earlier work.
Data set [26] has as its system allergy tested subjects with common cold. The note with it: lozenges.
Data set [27] has as its system rhinovirus. To be noted: reported 1974; cited from earlier work.
In data set [28] the test system is aminotripepidase. To be noted: cited from earlier work.
Data set [29] has as its system PMDD patients. The note with it: 1200 mg of calcium; cited from earlier work.
Data set [30] relates to swine. To be noted: in vivo; cited from earlier work.
The subject of data set [31] is animals. The note with it: cited from earlier work.
Data set [32] concerns neurons. The note with it: cited from earlier work.
Setting [33] is: homozygous mu-opioid receptor knockout mice.
Where [34] appears, read: wild type (and heterozygous) mice.
Where [35] appears, read: mu-opioid receptor knockout mice.

COMT, sequence (P21964 whole entry, species assumed): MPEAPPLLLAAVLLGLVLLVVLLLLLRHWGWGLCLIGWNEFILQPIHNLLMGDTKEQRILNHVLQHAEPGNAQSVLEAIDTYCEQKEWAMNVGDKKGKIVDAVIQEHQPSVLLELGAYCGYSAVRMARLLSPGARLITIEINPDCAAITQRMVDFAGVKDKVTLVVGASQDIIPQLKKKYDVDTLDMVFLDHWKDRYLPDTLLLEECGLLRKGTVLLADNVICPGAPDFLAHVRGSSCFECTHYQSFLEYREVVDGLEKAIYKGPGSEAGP
mu-opioid receptor, sequence (P42866 whole entry): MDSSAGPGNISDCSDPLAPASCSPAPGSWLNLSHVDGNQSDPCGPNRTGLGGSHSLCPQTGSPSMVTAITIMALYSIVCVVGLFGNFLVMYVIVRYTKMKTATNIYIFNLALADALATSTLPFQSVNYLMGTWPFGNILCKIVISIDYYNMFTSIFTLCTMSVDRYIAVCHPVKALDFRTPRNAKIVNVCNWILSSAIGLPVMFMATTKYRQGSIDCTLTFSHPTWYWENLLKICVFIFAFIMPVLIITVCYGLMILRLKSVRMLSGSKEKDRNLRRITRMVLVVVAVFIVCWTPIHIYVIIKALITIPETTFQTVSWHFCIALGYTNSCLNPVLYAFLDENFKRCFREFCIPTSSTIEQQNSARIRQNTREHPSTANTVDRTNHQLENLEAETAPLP

With DPDPE, the “withdrawal responses to mechanical stimuli” value in [1] (setting [33]) was “not”; in data set [1] (setting [34]), “reduced”.
As to `N[C@H](Cc1ccccc1)C(=O)O` [D-phenylalanine], in data set [2] (animals and man), the tolerance or addiction result is given as “without developing tolerance or addiction” and the analgesia result is listed as “excellent analgesia”. The duration of analgesia result in [2] (humans) is “very long-lasting”. In [3], the alcohol intake result is given as “significantly lowered”. For the same compound, the “pain associated with osteo- and rheumatoid arthritis” value in [4] (cross-over studies in humans) is recorded as “reduced pain”. In data set [4] (double-blind studies), the “analgesia in patients reactive to approved analgesic drugs including opiates” value is reported as “induced analgesia”. Moreover, the “analgesic effects of acupuncture” value in data set [4] (in vivo) is given as “enhance”. In [5], the anti-inflammatory character entry is “exhibits anti-inflammatory character”. Also, the “effect on blood pressure in normotensive individuals” value in [6] was “no effect”. Further, the “duration of blood pressure lowering” value in [6] (humans) is “one or more days”. For the same compound, in data set [7], the “average drop of systolic blood pressure” value was 36.7 mm Hg, the “duration of lowering of blood pressure” value is recorded as “several days”, the “effect on blood pressure in presence of narcotic antagonist” value was “blocked” and the “effect on blood pressure with the beta-blocker popranolol” value is “synergistic”. In [7], the heart rate result is on record as “no change”; the “systolic and diastolic blood pressure” value is “significantly lowered”.
Regarding `C[C@@H](NC(=O)[C@@H](N)Cc1ccc(O)cc1)C(=O)NCC(=O)N(C)[C@@H](Cc1ccccc1)C(=O)NCCO` [DAMGO], the “[35S]GTPgammaS binding” value in data set [8] is “concentration-dependent Increases”.
In the case of `OC[C@H]1O[C@@H](OCCc2ccc(O)cc2)[C@H](O)[C@@H](O)[C@@H]1O` [SAL, Salidosid], the “disulfuram-induced decrease of NE in the brain” value in [9] (30 mg/kg, animals) is recorded as “prevented”. Moreover, in [9] (30 mg/kg), the “decrease of content of 5-HT” value was 15% and the “decrease of content of NE” value was 26%. For the same compound, in data set [9] (100 mg/kg), the “decrease of concentration of Dopamine” value was 28%, the “decrease of concentration of NE” value is 20% and the “decrease of concentration of serotonin” value is given as 23%. Also, the “levels of epinephrine and DOPA” value in data set [9] (mouse, in vivo) is “did not alter”. In addition, in data set [10], the “activity of 5-HTP decarboxylase” value is “does not alter”. Besides, in [11] (SAL 30 mg/Kg with 5-HTP 100 mg/kg), the “increase of the rise in serotonin” value is 13%. In addition, the “increase of the rise in exogenous DOPA” value in data set [11] (SAL 30 mg/Kg with L-Dopa 50 mg/kg) is 26%. Further, in data set [12], the COMT activity result is listed as “inhibit; also recorded: inhibits COMT activity”. Besides, the MAO activity result in data set [13] is on record as “inhibit; also recorded: decreases MAO activity”.
Take `NC(Cc1ccccc1)C(=O)O` (racemic) [DL-phenylalanine]: the alcohol intake entry in [3] is “significantly lowered”. Further, in data set [14], the anxiety entry is “reduced anxiety” and the mood result was “increased the mood”.
Regarding `Nc1c2c(nc3ccccc13)CCCC2` [Cognex], the duration of action in data set [15] is 2 h.
With Tyr-Arg [Kyotorphin], the analgesic activity entry in data set [16] is “analgesic”. The intracellular calcium entry in [17] is recorded as “enhance intracellular calcium”.
In the case of `O=C1O[C@H]([C@@H](O)CO)C(O)=C1O` [vitamin C], the “decrease of incidence of the common cold” value in data set [18] is recorded as “no evidence”.
As to `CC(C)CC(N)C(=O)O` (racemic) [DL-leucine], in data set [3], the alcohol intake result is recorded as “significantly lowered”.
For `O=C(O)CCc1ccccc1` [hydrocinnamic acid], the alcohol intake entry in [3] was “significantly lowered”.
On to `NC(=O)CC[C@H](N)C(=O)O` [1-glutamine], for which the “content of glutamate, GABA and taurine in the brain” value in [19] is reported as “significant increase”.
Take Huperzine: the learning and memory entry in [20] was “improves learning and memory”.
In the case of `CN1CC[C@]23c4c5ccc(O)c4O[C@H]2[C@@H](O)C=C[C@H]3[C@H]1C5` [Morphine], the results for the writhing responses result in [21] (setting [35]) and in data set [21] (wild-type mice) were “ineffective” and “effective”, respectively. Besides, the results for the “withdrawal responses to mechanical stimuli” value in data set [1] (setting [33]) and in [1] (setting [34]) were “no significant effect” and “dose-dependent reduction”, respectively.
As for trivalent chromium, in [22], the chromosome breakage entry is “can break chromosomes”.
Regarding `CC(C)C[C@H]1C(=O)N2CCC[C@H]2[C@]2(O)O[C@](NC(=O)[C@@H]3C=C4c5cccc6[nH]c(Br)c(c56)C[C@H]4N(C)C3)(C(C)C)C(=O)N12` [bromocriptine], in data set [23], the short term memory result was “increase short term memory”. Besides, in [24], the rewarding actions result was “have rewarding actions”. Moreover, in data set [25], the “reducing relapse rates as a function of dopamine D2 receptor genotype” value is recorded as “selective positive effect”.
On to Tyr-D-arg, for which the analgesic activity result in [16] is listed as “analgesic”. Besides, in [17], the intracellular calcium result is given as “enhance intracellular calcium”.
For `CN1CCc2cccc3c2[C@H]1Cc1ccc(O)c(O)c1-3` [apomorphine], the rewarding actions entry in data set [24] is given as “have rewarding actions”.
On to `CC(=O)[O-].CC(=O)[O-].[Zn+2]` [Zinc acetate], for which, in data set [26], the “duration of common cold symptoms” value is reported as “significantly shortened” and the “symptoms associated with allergies” value was “re3lieved”.
In the case of `[Zn+2]` [zinc ions], the rhinovirus replication entry in data set [27] is recorded as “inhibit”. In data set [28], the inhibition of aminotripepidase entry is “potent inhibitor”.
Regarding `CC(C)C[C@@H](N)C(=O)O` [D-leucine], in data set [2] (animals and man), the analgesia entry is reported as “excellent analgesia”. Moreover, in data set [3], the alcohol intake entry is “significantly lowered”.
Turning to `[Ca+2]` [calcium], in [29], the “rate of reported symptoms relative to placebo” value is “fifty percent”.
For methionine-enkephalin, the “blood flow in specific brain sites (basal ganglia, frontal cortex, hippocampus)” value in data set [30] was “enhancement of blood flow”.
Regarding `O=C(CCCN1CCC(O)(c2ccc(Cl)cc2)CC1)c1ccc(F)cc1` [haloperidol], in [24] (animals), the “alcohol and cocaine self-administration” value is listed as “atenuate or block”.
For `C=CCN1C[C@H](C)N([C@H](c2ccc(C(=O)N(CC)CC)cc2)c2cccc(OC)c2)C[C@H]1C` [SNC8O], the writhing responses result in data set [21] (setting [35]) is on record as “ineffective”; in data set [21] (wild-type mice) it was “effective”.
As to `C/C=C1\[C@H]2C=C(C)C[C@]1(N)c1ccc(=O)[nH]c1C2` [Huperzine A], the “difference between amounts effective for memory and learning and the non-toxic-effect dose” value in data set [31] (behavioral studies in animals) is listed as 30-100 fold. Further, the side effects entry in data set [31] (dose of 2 micrograms/kg) is recorded as “no remarkable side effects”. Also, in data set [15] (dose of 2 micrograms/kg), the time active result was “six hours”. In addition, the duration of action in [15] was 3 h. In addition, the “glutamate-induced cellular death of neurons” value in data set [32] is reported as “blocked”.
